According to patent publication US10219516B2, “Molecules having pesticidal utility, and intermediates, compositions, and processes, related thereto” (priority 2015, dated 2019):

Tests used:
Format in all cases: in vivo
[1] = test system: Beet Armyworm (Spodoptera exigua, LAPHEG); experiment: Bioassay on Beet Armyworm (BAW), 128-well diet tray assay; settings: Beet Armyworm, 128-well diet tray assay, read-out: BAW rating
Outline: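 Test molecule dissolved in acetone-water 90:10 is applied at 50 μg/cm^2 onto artificial diet and allowed to dry. Second instar larvae, one to five per well, are then added, and trays are vented and kept at 25° C. for five to seven days before mortality is scored.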

[2] = test system: Yellow Fever Mosquito (Aedes aegypti, AEDSAE); experiment: Bioassay on Yellow Fever Mosquito (YFM), 96-well plate larval assay; settings: Yellow Fever Mosquito, 96-well plate larval assay
Outline: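 Compound stocks at 4000 ppm in DMSO were diluted with 90:10 water/acetone, and 15 μL aliquots were dispensed into six replicate plates. About 1-day-old larvae in liver-powder water were added per well. Plates were covered and held at room temperature for 3 days before each well was scored for mortality.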

[3] = test system: Cabbage Looper (Trichoplusia ni, TRIPNI); experiment: Bioassay on Cabbage Looper (CL), 128-well diet tray assay; settings: Trichoplusia ni; Cabbage Looper, 128-well diet tray assay; read-out: CL rating
Outline: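 Diet-incorporation-free surface assay: 50 μg/cm^2 compound in acetone-water (90:10), dried on diet; 1–5 2nd-instar larvae/well; 8 wells; vented cover; 25° C., 14:10 L:D, 5–7 d; % mortality averaged over wells.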

Structure (SMILES)	pest or weed control at 50 µg/cm2 [1] [%]	YFM rating [2]	pest or weed control at 50 µg/cm2 [3] [%]
O=C(Nc1ccc2c(c1)CCCN2)c1cc(NC(=O)[C@H]2[C@H](c3cc(Cl)cc(Cl)c3)C2(Cl)Cl)ccc1Cl (relative stereo) [F492, 2-Chloro-5-(trans)-(2,2-dichloro-3-(3,5-dichlorophenyl)cyclopropane-1-carboxamido)-N-(1,2,3,4-tetrahydroquinolin-6-yl)benzamide]	50 to 100	A (80-100)	50 to 100
N#Cc1ccc2c(N)nn(C(=O)c3cc(NC(=O)[C@H]4[C@H](c5cc(Cl)cc(Cl)c5)C4(Cl)Cl)ccc3Cl)c2c1 (relative stereo) [F493, trans-N-(3-(3-Amino-6-cyano-1H-indazole-1-carbonyl)-4-chlorophenyl)-2,2-dichloro-3-(3,5-dichlorophenyl)cyclopropane-1-carboxamide]	50 to 100	A (80-100)	50 to 100
CC(=O)Nc1cccc(NC(=O)c2cc(NC(=O)[C@H]3[C@H](c4cc(Cl)cc(Cl)c4)C3(Cl)Cl)ccc2Cl)n1 (relative stereo) [F494, N-(6-Acetamidopyridin-2-yl)-2-chloro-5-(trans-2,2-dichloro-3-(3,5-dichlorophenyl)cyclopropane-1-carboxamido)benzamide]	50 to 100	A (80-100)	50 to 100
O=C(Nc1ccc2c(ccn2CCF)c1)c1cc(NC(=O)[C@H]2[C@H](c3cc(Cl)cc(Cl)c3)C2(Cl)Cl)ccc1Cl (relative stereo) [F496, 2-Chloro-5-(trans)-(2,2-dichloro-3-(3,5-dichlorophenyl)cyclopropane-1-carboxamido)-N-(1-(2-fluoroethyl)-1H-indol-5-yl)benzamide]	50 to 100	A (80-100)	50 to 100
O=C(Nc1ccc2[nH]c(-c3ccccc3)cc2c1)c1cc(NC(=O)[C@H]2[C@H](c3cc(Cl)cc(Cl)c3)C2(Cl)Cl)ccc1Cl (relative stereo) [F497, 2-Chloro-5-(trans)-(2,2-dichloro-3-(3,5-dichlorophenyl)cyclopropane-1-carboxamido)-N-(2-phenyl-1H-indol-5-yl)benzamide]	50 to 100	A (80-100)	50 to 100
O=C(Nc1ccc2c(c1)C(=O)N(c1ccc(F)cc1)C2=O)c1cc(NC(=O)[C@H]2[C@H](c3cc(Cl)cc(Cl)c3)C2(Cl)Cl)ccc1Cl (relative stereo) [F504, 2-Chloro-5-(trans)-(2,2-dichloro-3-(3,5-dichlorophenyl)cyclopropane-1-carboxamido)-N-(2-(4-fluorophenyl)-1,3-dioxoisoindolin-5-yl)benzamide]	50 to 100	A (80-100)	50 to 100
CC(C)(C)OC(=O)Nc1cccc(NC(=O)c2cc(NC(=O)[C@H]3[C@H](c4ccc(F)c(Cl)c4)C3(Cl)Cl)ccc2Cl)n1 (relative stereo) [F506, tert-Butyl (6-(2-chloro-5-(trans-2,2-dichloro-3-(3-chloro-4-fluorophenyl)cyclopropane-1-carboxamido)benzamido)pyridin-2-yl)carbamate]	50 to 100	A (80-100)	50 to 100
O=C(Nc1ccc2c(c1)CCN2)c1cc(NC(=O)[C@H]2[C@H](c3cc(Cl)cc(Cl)c3)C2(Cl)Cl)ccc1Cl (relative stereo) [F511, 2-Chloro-5-(trans)-(2,2-dichloro-3-(3,5-dichlorophenyl)cyclopropane-1-carboxamido)-N-(indolin-5-yl)benzamide]	50 to 100	A (80-100)	50 to 100
CC(C)(C)OC(=O)N(C(=O)OC(C)(C)C)c1c(F)ccc(NC(=O)c2cc(NC(=O)[C@H]3[C@H](c4cccc(C(F)(F)F)c4)C3(Cl)Cl)ccc2Cl)c1F (relative stereo) [F516, trans-tert-Butyl-N-((tert-butoxy)carbonyl)-N-(3-(2-chloro-5-(2,2-dichloro-3-(3-(trifluoromethyl)phenyl)cyclopropane-1-carboxamido)benzamido)-2,6-difluorophenyl)carbamate]	50 to 100	A (80-100)	50 to 100
CN1Cc2ccc(NC(=O)c3cc(NC(=O)[C@H]4[C@H](c5cc(Cl)cc(Cl)c5)C4(Cl)Cl)ccc3Cl)cc2C1=O (relative stereo) [F517, 2-Chloro-5-(trans)-(2,2-dichloro-3-(3,5-dichlorophenyl)cyclopropane-1-carboxamido)-N-(2-methyl-3-oxoisoindolin-5-yl)benzamide]	50 to 100	A (80-100)	50 to 100
CN1Cc2cc(NC(=O)c3cc(NC(=O)[C@H]4[C@H](c5cc(Cl)cc(Cl)c5)C4(Cl)Cl)ccc3Cl)ccc2C1=O (relative stereo) [F518, 2-Chloro-5-(trans)-(2,2-dichloro-3-(3,5-dichlorophenyl)cyclopropane-1-carboxamido)-N-(2-methyl-1-oxoisoindolin-5-yl)benzamide]	50 to 100	A (80-100)	50 to 100
O=C(Nc1cc2cc[nH]c2cc1F)c1cc(NC(=O)[C@H]2[C@H](c3cc(Cl)cc(Cl)c3)C2(Cl)Cl)ccc1Cl (relative stereo) [F527, 2-Chloro-5-(trans)-(2,2-dichloro-3-(3,5-dichlorophenyl)cyclopropane-1-carboxamido)-N-(6-fluoro-1H-indol-5-yl)benzamide]	50 to 100	A (80-100)	50 to 100
O=C(Nc1cccc2[nH]ccc12)c1cc(NC(=O)[C@H]2[C@H](c3cc(Cl)cc(Cl)c3)C2(Cl)Cl)ccc1Cl (relative stereo) [F528, 2-Chloro-5-(trans)-(2,2-dichloro-3-(3,5-dichlorophenyl)cyclopropane-1-carboxamido)-N-(1H-indol-4-yl)benzamide]	50 to 100	A (80-100)	50 to 100
O=C(Nc1cccc2cc[nH]c12)c1cc(NC(=O)[C@H]2[C@H](c3cc(Cl)cc(Cl)c3)C2(Cl)Cl)ccc1Cl (relative stereo) [F529, 2-Chloro-5-(trans)-(2,2-dichloro-3-(3,5-dichlorophenyl)cyclopropane-1-carboxamido)-N-(1H-indol-7-yl)benzamide]	50 to 100	A (80-100)	50 to 100
Cn1ccc2c(NC(=O)c3cc(NC(=O)[C@H]4[C@H](c5cc(Cl)cc(Cl)c5)C4(Cl)Cl)ccc3Cl)cccc21 (relative stereo) [F530, 2-Chloro-5-(trans)-(2,2-dichloro-3-(3,5-dichlorophenyl)cyclopropane-1-carboxamido)-N-(1-methyl-1H-indol-4-yl)benzamide]	50 to 100	A (80-100)	50 to 100
Cn1ccc2cccc(NC(=O)c3cc(NC(=O)[C@H]4[C@H](c5cc(Cl)cc(Cl)c5)C4(Cl)Cl)ccc3Cl)c21 (relative stereo) [F531, 2-Chloro-5-(trans)-(2,2-dichloro-3-(3,5-dichlorophenyl)cyclopropane-1-carboxamido)-N-(1-methyl-1H-indol-7-yl)benzamide]	50 to 100	A (80-100)	50 to 100
O=C(Nc1ccc(F)cc1F)c1cc(NC(=O)[C@H]2[C@H](c3ccc(Br)c(Br)c3)C2(Cl)Cl)ccc1Cl (relative stereo) [F532, 2-Chloro-5-(trans)-(2,2-dichloro-3-(3,4-dibromophenyl)cyclopropane-1-carboxamido)-N-(2,4-difluorophenyl)benzamide]	50 to 100	A (80-100)	50 to 100
O=C(Nc1ccc(F)cc1)c1cc(NC(=O)[C@H]2[C@H](c3cc(F)c(Br)c(F)c3)C2(Cl)Cl)ccc1Cl (relative stereo) [F538, 5-(trans-3-(4-bromo-3,5-difluorophenyl)-2,2-dichlorocyclopropane-1-carboxamido)-2-chloro-N-(4-fluorophenyl)benzamide]	50 to 100	A (80-100)	50 to 100
COc1cc([C@H]2[C@H](C(=O)Nc3ccc(Cl)c(C(=O)Nc4ccc(F)cc4)c3)C2(Cl)Cl)cc(F)c1Br (relative stereo) [F539, 5-(trans-3-(4-Bromo-3-fluoro-5-methoxyphenyl)-2,2-dichlorocyclopropane-1-carboxamido)-2-chloro-N-(4-fluorophenyl)benzamide]	50 to 100	A (80-100)	50 to 100
O=C(Nc1ccc(F)cc1F)c1cc(NC(=O)[C@H]2[C@H](c3cc(F)c(Br)c(F)c3)C2(Cl)Cl)ccc1Cl (relative stereo) [F541, 5-(trans-3-(4-Bromo-3,5-difluorophenyl)-2,2-dichlorocyclopropane-1-carboxamido)-2-chloro-N-(2,4-difluorophenyl)benzamide]	50 to 100	A (80-100)	50 to 100
COc1cc([C@H]2[C@H](C(=O)Nc3ccc(Cl)c(C(=O)Nc4ccc(F)cc4F)c3)C2(Cl)Cl)cc(F)c1Br (relative stereo) [F542, 5-(trans-3-(4-Bromo-3-fluoro-5-methoxyphenyl)-2,2-dichlorocyclopropane-1-carboxamido)-2-chloro-N-(2,4-difluorophenyl)benzamide]	50 to 100	A (80-100)	50 to 100
